From patent publication US9428465B2, “Acid ceramidase inhibitors and their use as medicaments” (FONDAZIONE ISTITUTO ITALIANO DI TECHNOLOGIA, priority 2012, dated 2016)

Assays:
[1] = tested on: SW403 cells; assay: SW403 cell viability, MTT assay; assay type: cell-based, human
Experimental: (§1) Cells were seeded in 12- or 96-well plates in complete medium 24 hrs before treatment and then incubated for 24 hrs (single treatment) or 72 hrs (multiple treatments) with different drug concentrations in media without serum. Cell viability was then evaluated.
Alternatively, cell viability was assessed measuring mitochondrial functionality by the MIT assay, which is based on the reduction of the soluble tetrazolium salt MTT [(3-(4,5-dimethylthiazol-2-yl)-2,5-diphenyltetrazolium bromide] into insoluble formazan by mitochondria. Briefly, after treatment, cells were washed with PBS and incubated with 0.5 mg/ml, MTT for 2 hrs at room temperature, MTT reduction was quantified by absorbance at 570 nm using a UV-visible plate reader.

[2] = molecular target: rat acid ceramidase (rAC) (Rattus norvegicus (Rat), UniProt Q6P7S1); assay: Rat acid ceramidase (rAC) enzymatic assay, LC/MS of lauric acid; assay type: biochemical; details: rat acid ceramidase, 100 μM N-lauroyl ceramide, pH 4.5
Experimental: A lysosomal rat acid ceramidase (rAC) protein preparation was obtained from cells stably expressing rAC resuspended in 20 mM Tris HCl (pH 7.5) with 0.32 M sucrose. Samples were sonicated and centrifuged at 800×g for 15 min at 4° C. Supernatants were then centrifuged at 12,000×g for 30 min at 4° C. Pellets were re-suspended in PBS pH 7.4 and subjected to 2 freeze-thaw cycles at −80° C. The suspension was finally centrifuged at 105,000×g for 1 hr at 4° C. and the supernatant containing rAC was then used in the enzymatic assay.
r-AC protein samples were pre-incubated with various concentrations of test compounds or vehicle control in 100 mM NaH2PO4/citrate buffer pH 4.5, 0.1% Nonidet P-40, 3 mM DTT for 30 min at 37° C. Samples were incubated with 100 μM N-lauroyl ceramide (Nu-Chek Prep, Elysian, Minn.) at 37° for 30 min. The reaction was stopped by addition of a mixture of chloroform/methanol (2:1 vol/vol) containing 1 nmol of heptadecanoic acid (HDA; NuChek Prep). The organic phases were collected, dried under nitrogen, and analyzed by LC/MS in the negative-ion mode using heptadecanoic acid (HDA) as internal standard (m/z=199 for lauric acid, m/z=269 for HDA). HDA was eluted on an XDB Eclipse C18 column isocratically at 2.2 mL/min for 1 min with a solvent mixture of 95% methanol and 5% water, both containing 0.25% acetic acid, and 5 mM ammonium acetate. The column temperature was 50° C. Electrospray ionization (ESI) was in the negative mode, capillary voltage was 4 kV, and fragmentor voltage was 100 V. Nitrogen was used as drying gas at a flow rate of 13 L/min and at a temperature of 350° C. Nebulizer pressure was set at 60 psi. We monitored [M-H]− in the selected-ion monitoring (SIM) mode using HDA as internal standard.
Inhibition of rAC activity was calculated as a reduction of lauric acid in the samples compared to vehicle controls. Median inhibitory concentration (IC50) values were calculated by non-linear regression analysis of log [concentration]/inhibition curves using. GraphPad Prism 5 (GraphPad Software, Inc., CA, USA) applying a standard slope curve fitting.

[3] = tested on: SW403 cells; assay: SW403 cell viability, trypan blue assay; assay type: cell-based, human; details: prolonged (72 hrs) treatment, concentration-response, FIGS. 2A and 2B
Experimental: as §1
The trypan blue exclusion assay is based on the principle that viable cells have intact cell membrane and can therefore exclude the trypan blue dye. Cell viability was measured after 24 hrs incubation with the drug. Cells were harvested, centrifuged at 1200 rpm for 10 min and pellets re-suspended in PBS. To evaluate viability, cells were diluted 1:1 with 0.4% trypan blue dye (Sigma), incubated for 1 min and white (viable) cells were counted with a hemacytometer.

[4] = tested on: human colon adenocarcinoma cell line SW403; assay: Ceramide levels in SW403 cells (lipid extraction, LC/MS); assay type: cell-based; details: 3 μM, 3 hrs, vs. vehicle
Experimental: Lipids were extracted using a chloroform/methanol mixture (2:1 vol/vol, 3 mL) containing internal standards. The organic phases were collected, dried under nitrogen, and dissolved in methanol/chloroform (3:1 vol/vol) for LC/MS analyses.
Ceramides were analyzed by LC/MS^n, using a 1100-LC system (Agilent Technologies) equipped with an Ion Trap XCT and interfaced with ESI (Agilent Technologies). They were separated on a Poroshell 300 SB C18 column (2.1×75 mm i.d., 5 μm; Agilent Technologies) maintained at 30° C. A linear gradient of methanol in water containing 5 mM ammonium acetate and 0.25% acetic acid (from 80% to 100% of methanol in 3 man) was applied at a flow rate of 1 mL/min. […]
Tissue-derived ceramides were identified by comparison of their LC retention times and MS^n fragmentation patterns with those of authentic standards (Avanti Polar Lipids). Extracted ion chromatograms were used to quantify myristoyl ceramide (C140, m/z 510.5>492.5>264.3), palmitoyl ceramide (C16:0, m/z 538.5>520.3>264.3), stearoyl ceramide (C18:0 m/z 566.5>548.3>264.3), lignoceroylceramide (C24:0 m/z 650.5>632.3>264.3), nervonoylceramide (C24:1 m/z 648.5>630.3>264.3) and using lauroyl ceramide standard (m/z 482.5>464.5>264.3). […]

[5] = tested on: SW403 cells; assay: Isobolographic analysis of combined treatment of SW403 cells (ED50, trypan blue assay); assay type: cell-based, human
Experimental: Interaction between drugs was assessed by isobolographic analysis, based on the concept of dose-equivalence which follows from the dose effect curves of the individual drugs (Tallarida R I, Interactions between drugs and occupied receptors. Pharmacol. Ther. 2007, 113, 197-209; Tallarida R J, Raffa R B, The application of drug dose equivalence in the quantitative analysis of receptor occupation and drug combinations. Pharmacol. Ther. 2010; 127, 165-174). Specifically, the individual drugs' potency and efficacy allow calculating the expected effect of a combination of the two drugs.
In the experiment of combined treatment, isobolograms were constructed by plotting on vertical and horizontal axes the ED50 data of the single drugs measured by trypan blue assay after subcronic treatment for 72 hrs. The straight line with axial intercepts represents the isobole of additivity and allows calculating the theoretical additive dose. Synergism is indicated by an observed pair (x, y) that plots below the isobole for the specified effect, whereas sub-additivity is indicated when an observed pair (x, y) plots above the isobole.

[6] = SW403 cells, 72 hrs, isobole of additivity, higher than the experimental values

rat acid ceramidase (rAC), sequence (Q6P7S1 142-394): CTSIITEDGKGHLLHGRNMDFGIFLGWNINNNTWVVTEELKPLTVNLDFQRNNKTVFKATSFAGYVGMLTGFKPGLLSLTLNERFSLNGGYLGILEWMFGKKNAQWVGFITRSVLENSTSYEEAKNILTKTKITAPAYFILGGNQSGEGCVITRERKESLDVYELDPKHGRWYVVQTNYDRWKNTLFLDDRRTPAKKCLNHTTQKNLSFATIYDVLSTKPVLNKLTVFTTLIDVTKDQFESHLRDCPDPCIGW
rat acid ceramidase (rAC), sequence (Q6P7S1 21-141): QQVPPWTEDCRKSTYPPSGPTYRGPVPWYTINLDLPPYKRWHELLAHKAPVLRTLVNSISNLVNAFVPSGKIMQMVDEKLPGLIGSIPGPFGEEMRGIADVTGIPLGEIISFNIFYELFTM

IC50 [2]: 0.01 µM
SMILES: CCCCCCNC(=O)n1cc(C(F)(F)F)c(=O)[nH]c1=O [Example 4, N-hexyl-2,4-dioxo-5-(trifluoromethyl)pyrimidine-1-carboxamide]
interaction with 5FU in reducing cell viability (MTT assay) ([1]; 72 hrs, compound 30 μM + 5FU 300 nM): synergistic effect
SW403 cell viability (MTT assay) ([1]; sub-chronic treatment 72 hrs, compounds 30 μM, 5FU 300 nM): reduced cell viability
SW403 cell viability (trypan blue assay) [3]: reduction of the viability
levels of C14:0, C16:0 and C18:0 ceramide [4]: increased
theoretical dose (Th) to be used with 20 nM taxol to obtain an additive effect [5, 6]: 4.9 µM
theoretical dose (Th) to be used with 300 nM 5FU to obtain an additive effect [5, 6]: 7.8 µM
interaction with taxol in reducing viability of SW403 cells (isobologram) ([5]; prolonged treatment, 20 nM taxol, trypan blue ED50): synergistic effect
interaction with 5-fluorouracil in reducing viability of SW403 cells (isobologram) ([5]; prolonged treatment, 300 nM 5FU, trypan blue ED50): synergistic effect
